Test results from patent US11352338B2, “Substituted isoindolinones” (BioTheryX, Inc., priority 2018, dated 2022).

Legend:
PDE6D = biological target: T1, PDE6D (Homo sapiens, UniProt O43924+Q96SW2); test: Western blot, degradation of cellular PDE6D in MV-4-11 cells; assay type: cell-based; settings: for Dmax at 1 µM: MV4-11, tested at 1 μM, MV-4-11 cells, 6-8 hours, read-out: % Degradation compared to DMSO, PDE6D
T1 construct: endogenous in cells; host or cells: MV-4-11
Description: (§1) MV-4-11 cells were grown in RPMI 1640 media supplemented with 10% fetal bovine serum, streptomycin and penicillin.
(§2) Cells were cultured at approximately 10^6 cells per mL and incubated in DMSO or the indicated compounds for 6-8 hours. Whole cell extracts were prepared using RIPA lysis buffer according to manufacturer's protocol (Pierce). Briefly, 4×10^6 cells were washed once in PBS, the cell pellets were resuspended in RIPA lysis buffer and allowed to incubate for 15 minutes on ice. Cells debris was removed by centrifugation and the cleared whole cell lysates were transferred to new tubes for further analysis.
(§3) For Western blot analysis, whole cell protein extracts were separated on 4-12% SDS-polyacrylamide gels, transferred to nitrocellulose and probed with the indicated primary antibodies. Membranes were subsequently washed and probed with the appropriate IRDye secondary antibodies (LI-COR). The signal was detected using the Odyssey Imaging System (LI-COR).
(§4) The following antibodies were used in these studies: Anti-PDE6D antibody: Santa Cruz Biotechnology, sc-166854 (Dallas, Tex.); Anti-Ikaros: Abcam, ab191394 (Cambridge, Mass.); anti-CK1α antibody: Abcam, ab108296 (Cambridge, Mass.); β-Actin (8H10D10) mouse monoclonal antibody: Cell Signaling Technology, #3700 (Danvers, Mass.); IRDye 680RD Goat anti-rabbit antibody: LI-COR, 926-68071 (Lincoln, Nebr.); and IRDye 800CW Goat anti-mouse antibody: LI-COR, 926-32210 (Lincoln, Nebr.).
(§5) The % degradation values are reported as “A”, “B”, “C”, or “D.” “A” represents a % degradation value of less than 25% (value<25%); “B” represents a % degradation value of equal to or more than 25% and less than 50% (25%≤value<50%); “C” represents a % degradation value of equal to or more than 50% and less than 75% (50%≤value<75%); and “D” represents a % degradation value of equal to or more than 75% (value≥75%). […] was used as control.

Ikaros = biological target: T2, Ikaros (Homo sapiens, UniProt Q13422+Q96SW2); test: Western blot, degradation of cellular Ikaros in MV-4-11 cells; assay type: cell-based; settings: MV4-11, tested at 1 μM, 6-8 hours, read-out: % Degradation compared to DMSO, Ikaros
T2 construct: endogenous in cells; host or cells: MV-4-11
Description: as §1, §2, §3, §4, §5

TNFα = TNFα inhibition, LPS-induced PBMCs or CD14+ monocytes, Meso Scale assay; assay type: cell-based; settings: LPS 100 ng/mL 18-24 h, read-out: % Inhibition compared to DMSO, TNFα; for inhibition at 1 µM: tested at 1 μM; for inhibition at 10 µM: tested at 10 μM
Description: (§6) Either frozen primary blood mononuclear cells (PBMCs) or frozen CD14+ mobilized peripheral blood monocytes were purchased from AllCells (PB003F, Normal Peripheral Blood MNC (Alameda, Calif.)). Cells were quick thawed, washed 1-time with RPMI-1640 (10% FBS/1% Pen-Strep) and plated in 96 well plates at 200,000 cells per well. Cells were pretreated with DMSO only or with the indicated compound for 1 h and then induced with 100 ng/mL lipopolysaccharide (LPS) for 18-24 h. The supernatant was analyzed for IL-1β, IL-6, and TNFα, using Meso Scale assay according to manufacturer's protocol. The negative control wells were treated with DMSO.
(§7) IL-1β, IL-6 and TNFα activities were tested at two different concentrations (1 μM and 10 μM) and the results are shown in Tables 2 and 3 respectively.

CK1α = biological target: T3, CK1α (Homo sapiens, UniProt P48729+Q96SW2); test: Western blot, degradation of cellular CK1α in MV-4-11 cells; assay type: cell-based; settings: MV4-11, tested at 1 μM, 6-8 hours, read-out: % Degradation compared to DMSO, CK1α
T3 construct: endogenous in cells; host or cells: MV-4-11
Description: as §1, §2, §3, §4, §5

IL-2 = IL-2 inhibition assay, anti-CD3 (OKT3) stimulated PBMCs, Mesoscale IL-2 analysis; assay type: cell-based, human; settings: for fold induction at 1 µM / fold induction at 10 µM: Homo sapiens, PBMC, PBMCs on anti-CD3, 24 h, fold difference from DMSO control, read-out: IL-2, % Induction compared to DMSO
Description: For the IL-2 analysis, 96 well plates were precoated with 1 μg/mL anti-human CD3 antibody (OKT3, eBioscience Inc., San Diego, Calif.). After washing with PBS, the indicated compound was added (50 μL/well) followed by PBMCs diluted at 3-4 million cells/mL (150 μL/well). Plates were incubated for 24 h and the supernatants collected for Mesoscale IL-2 analysis. IL-2 activity is measured as fold difference from the DMSO control. […]
In Table 4, the fold-change values are reported as “A”, “B”, “C”, or “D”. “A” represents a fold-change value of equal to or less than 0.5 (value≤0.5); “B” represents a fold-change value of more than 0.5 and equal to or less than 1 (0.5<value≤1); “C” represents a fold-change value of more than 1 and less than 1.5 (1<value<1.5); and “D” represents a fold-change value of equal to or more than 1.5 (value≥1.5).

IL-1β = IL-1β inhibition, LPS-induced PBMCs or CD14+ monocytes, Meso Scale assay; assay type: cell-based; settings: LPS 100 ng/mL 18-24 h, read-out: % Inhibition compared to DMSO, IL-1β; for inhibition at 1 µM: tested at 1 μM; for inhibition at 10 µM: tested at 10 μM
Description: as §6, §7

IL-6 = IL-6 inhibition, LPS-induced PBMCs or CD14+ monocytes, Meso Scale assay; assay type: cell-based; settings: LPS 100 ng/mL 18-24 h, read-out: % Inhibition compared to DMSO, IL-6; for inhibition at 1 µM: tested at 1 μM; for inhibition at 10 µM: tested at 10 μM
Description: as §6, §7

T2 sequence (Q13422 whole entry): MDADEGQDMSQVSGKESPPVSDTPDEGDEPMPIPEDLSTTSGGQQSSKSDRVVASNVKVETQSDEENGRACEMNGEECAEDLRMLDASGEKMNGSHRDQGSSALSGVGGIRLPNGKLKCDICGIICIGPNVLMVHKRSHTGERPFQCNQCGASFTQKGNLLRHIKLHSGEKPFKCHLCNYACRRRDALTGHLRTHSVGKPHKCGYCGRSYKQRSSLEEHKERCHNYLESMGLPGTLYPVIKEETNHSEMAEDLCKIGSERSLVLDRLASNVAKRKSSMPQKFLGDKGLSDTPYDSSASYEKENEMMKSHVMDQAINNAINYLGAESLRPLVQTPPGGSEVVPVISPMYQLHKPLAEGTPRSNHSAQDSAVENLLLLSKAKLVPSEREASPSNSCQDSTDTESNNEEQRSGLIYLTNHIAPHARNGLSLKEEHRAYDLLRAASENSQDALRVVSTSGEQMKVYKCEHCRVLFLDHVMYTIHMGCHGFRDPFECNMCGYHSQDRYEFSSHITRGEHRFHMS
T2 sequence (Q96SW2 whole entry): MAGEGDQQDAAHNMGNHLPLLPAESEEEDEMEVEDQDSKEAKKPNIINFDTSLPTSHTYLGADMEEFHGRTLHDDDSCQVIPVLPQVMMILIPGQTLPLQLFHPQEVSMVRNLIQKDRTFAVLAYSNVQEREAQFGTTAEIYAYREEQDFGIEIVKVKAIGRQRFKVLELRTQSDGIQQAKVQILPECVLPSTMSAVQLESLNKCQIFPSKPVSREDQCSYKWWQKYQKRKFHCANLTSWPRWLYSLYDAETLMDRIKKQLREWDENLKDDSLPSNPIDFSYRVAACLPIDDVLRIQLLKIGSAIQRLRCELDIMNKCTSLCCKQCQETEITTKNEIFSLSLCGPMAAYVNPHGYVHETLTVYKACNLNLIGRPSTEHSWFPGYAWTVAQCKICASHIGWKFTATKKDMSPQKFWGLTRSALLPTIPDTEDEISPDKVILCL
T2 sequence (Q16531 whole entry partner): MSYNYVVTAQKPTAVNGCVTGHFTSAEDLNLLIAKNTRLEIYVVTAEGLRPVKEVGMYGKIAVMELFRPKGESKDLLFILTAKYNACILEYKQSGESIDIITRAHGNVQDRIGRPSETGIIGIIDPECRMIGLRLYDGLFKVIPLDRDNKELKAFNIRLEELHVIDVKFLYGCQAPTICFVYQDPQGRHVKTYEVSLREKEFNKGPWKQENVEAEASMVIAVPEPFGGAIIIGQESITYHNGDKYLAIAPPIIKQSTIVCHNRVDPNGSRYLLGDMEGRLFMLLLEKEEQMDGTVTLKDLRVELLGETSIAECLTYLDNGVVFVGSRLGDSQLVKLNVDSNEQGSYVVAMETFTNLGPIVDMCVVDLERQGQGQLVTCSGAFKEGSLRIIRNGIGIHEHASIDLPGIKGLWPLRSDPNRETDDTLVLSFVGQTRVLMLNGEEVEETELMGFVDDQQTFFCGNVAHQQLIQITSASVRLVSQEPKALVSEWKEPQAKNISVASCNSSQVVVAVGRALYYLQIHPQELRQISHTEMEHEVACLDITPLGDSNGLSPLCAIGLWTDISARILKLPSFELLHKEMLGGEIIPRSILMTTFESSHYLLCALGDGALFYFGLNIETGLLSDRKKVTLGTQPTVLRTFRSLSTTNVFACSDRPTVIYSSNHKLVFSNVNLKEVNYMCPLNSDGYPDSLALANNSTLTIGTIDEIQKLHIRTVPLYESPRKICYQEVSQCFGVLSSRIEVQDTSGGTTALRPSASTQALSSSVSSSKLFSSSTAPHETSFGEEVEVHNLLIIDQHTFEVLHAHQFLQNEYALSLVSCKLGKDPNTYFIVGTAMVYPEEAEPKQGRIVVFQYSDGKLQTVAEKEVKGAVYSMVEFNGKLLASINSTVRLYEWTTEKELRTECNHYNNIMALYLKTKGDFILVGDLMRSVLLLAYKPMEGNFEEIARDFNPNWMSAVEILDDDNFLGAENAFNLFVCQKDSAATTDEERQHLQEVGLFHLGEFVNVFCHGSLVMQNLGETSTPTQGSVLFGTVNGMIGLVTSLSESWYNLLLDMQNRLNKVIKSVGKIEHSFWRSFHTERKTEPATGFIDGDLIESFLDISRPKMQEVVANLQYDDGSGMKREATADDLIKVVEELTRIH
T3 sequence (P48729 whole entry): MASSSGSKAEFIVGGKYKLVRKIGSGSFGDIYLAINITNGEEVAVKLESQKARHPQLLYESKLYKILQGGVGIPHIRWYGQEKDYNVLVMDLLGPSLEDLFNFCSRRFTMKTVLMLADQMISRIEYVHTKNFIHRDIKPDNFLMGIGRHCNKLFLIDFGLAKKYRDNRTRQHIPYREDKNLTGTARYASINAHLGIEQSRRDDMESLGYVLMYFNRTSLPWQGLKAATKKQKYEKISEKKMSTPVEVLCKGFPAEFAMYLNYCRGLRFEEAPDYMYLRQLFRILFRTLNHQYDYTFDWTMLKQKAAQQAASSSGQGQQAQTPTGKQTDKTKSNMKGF
T3 sequence (Q96SW2 whole entry): as the sequence (Q96SW2 whole entry) above
T3 sequence (Q16531 whole entry partner): as the sequence (Q16531 whole entry partner) above
T1 sequence (O43924 whole entry): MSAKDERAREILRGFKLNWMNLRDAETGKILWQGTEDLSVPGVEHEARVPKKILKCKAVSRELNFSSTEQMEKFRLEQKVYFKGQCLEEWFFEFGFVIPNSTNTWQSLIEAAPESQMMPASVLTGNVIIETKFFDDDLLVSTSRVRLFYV
T1 sequence (Q96SW2 whole entry): as the sequence (Q96SW2 whole entry) above
T1 sequence (Q16531 whole entry partner): as the sequence (Q16531 whole entry partner) above

| SMILES | Dmax at 1 µM (PDE6D) [%] | Dmax at 1 µM (Ikaros) [%] | Dmax at 1 µM (CK1α) [%] | inhibition at 1 µM (TNFα) [%] | inhibition at 10 µM (TNFα) [%] | fold induction at 1 µM (IL-2) | fold induction at 10 µM (IL-2; 10 μM) | inhibition at 1 µM (IL-1β) [%] | inhibition at 10 µM (IL-1β) [%] | inhibition at 1 µM (IL-6) [%] | inhibition at 10 µM (IL-6) [%] | % Degradation of PDE6D (PDE6D; 1 μM, comparison with comparative compound A) | effect on IL-2 (in words) (IL-2; 10 μM) | IL-2, % Induction compared to DMSO (IL-2; 10 μM, comparison with comparative compound B) |
| --- | --- | --- | --- | --- | --- | --- | --- | --- | --- | --- | --- | --- | --- | --- |
| CC1(N2Cc3c(cc(F)cc3C3CCCC3)C2=O)CCC(=O)NC1=O (stereo not drawn) [Compound 4, 3-(4-cyclopentyl-6-fluoro-1-oxoisoindolin-2-yl)-3-methylpiperidine-2,6-dione] | < 25 | < 25 | < 25 | 25 to 50 | > 50 | 0.5 to 1 | 0.5 to 1 | < 10 | 10 to 25 | < 10 | < 10 |  |  |  |
| O=C1CCC(N2C(=O)c3cc(F)cc(C4CCCC4)c3C2=O)C(=O)N1 (stereo not drawn) [Compound 12] | ≥ 75 | < 25 | < 25 | 10 to 25 | 25 to 50 | 0.5 to 1 | 0.5 to 1 | < 10 | < 10 | < 10 | < 10 |  |  |  |
| O=C1CCC(N2Cc3c(cc(F)cc3C3CCCC3)C2=O)C(=O)N1 (stereo not drawn) [Compound 1] | ≥ 75 | 50 to 75 | ≥ 75 | 25 to 50 | 25 to 50 | ≤ 0.5 | ≤ 0.5 | 10 to 25 | 25 to 50 | < 10 | < 10 | D (a % degradation value of equal to or more than 75% (value≥75%)) | strong inhibition of IL-2 (downregulation) | A (a fold-change value of equal to or less than 0.5 (value≤0.5)) |

The next lines start with results.

| Dmax at 1 µM (PDE6D) [%] | Dmax at 1 µM (Ikaros) [%] | Dmax at 1 µM (CK1α) [%] | SMILES | inhibition at 1 µM (TNFα) [%] | inhibition at 10 µM (TNFα) [%] | fold induction at 1 µM (IL-2) | fold induction at 10 µM (IL-2; 10 μM) | inhibition at 1 µM (IL-1β) [%] | inhibition at 10 µM (IL-1β) [%] | inhibition at 1 µM (IL-6) [%] | inhibition at 10 µM (IL-6) [%] | % Degradation of PDE6D (PDE6D; 1 μM, comparison with comparative compound A) | effect on IL-2 (in words) (IL-2; 10 μM) | IL-2, % Induction compared to DMSO (IL-2; 10 μM, comparison with comparative compound B) |
| --- | --- | --- | --- | --- | --- | --- | --- | --- | --- | --- | --- | --- | --- | --- |
| ≥ 75 | 25 to 50 | 50 to 75 | O=C1CCC(N2Cc3c(cc(F)cc3C3CCCCCC3)C2=O)C(=O)N1 (stereo not drawn) [Compound 15] | < 10 | < 10 | 0.5 to 1 | ≤ 0.5 | < 10 | < 10 | < 10 | < 10 |  |  |  |
| ≥ 75 | < 25 | 50 to 75 | O=C1CCC(N2Cc3c(cc(F)c(F)c3C3CCCC3)C2=O)C(=O)N1 (stereo not drawn) [Compound 16] | < 10 | 10 to 25 | 0.5 to 1 | 0.5 to 1 | < 10 | < 10 | < 10 | < 10 |  |  |  |
| 50 to 75 | 25 to 50 | 25 to 50 | O=C1CCC(N2Cc3c(cc(F)cc3C3CC4CCC3C4)C2=O)C(=O)N1 (stereo not drawn) [Compound 25] | 10 to 25 | 10 to 25 | 1 to 1.5 | 0.5 to 1 | < 10 | 25 to 50 | < 10 | < 10 |  |  |  |
